Results reported in PMC9037111, “Structure-based design, synthesis, and biological evaluation of novel piperine–resveratrol hybrids as antiproliferative agents targeting SIRT-2” (RSC Advances, 2021).
Like-named read-outs stand apart in the source and are kept apart here.

Tests used:
[1] = biological target: T1, SIRT2 (Homo sapiens, UniProt Q8IXJ6); assay: biochemical; parameters: Sirtuin-TK assay, percent inhibition of human SIRT1 or SIRT2 at 5 and 50 uM
T1 sequence (Q8IXJ6 2-389): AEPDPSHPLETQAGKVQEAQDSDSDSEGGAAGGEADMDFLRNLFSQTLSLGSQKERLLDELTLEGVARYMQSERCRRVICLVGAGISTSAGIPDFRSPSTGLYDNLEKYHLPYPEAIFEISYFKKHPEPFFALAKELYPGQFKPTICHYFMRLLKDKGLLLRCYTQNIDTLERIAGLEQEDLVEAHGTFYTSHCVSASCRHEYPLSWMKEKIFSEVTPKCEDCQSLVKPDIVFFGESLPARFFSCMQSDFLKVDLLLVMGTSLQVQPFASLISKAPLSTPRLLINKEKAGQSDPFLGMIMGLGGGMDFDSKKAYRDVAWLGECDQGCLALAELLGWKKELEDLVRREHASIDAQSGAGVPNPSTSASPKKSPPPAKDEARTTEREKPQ
Method: (§1) Sirtuin-TK assay was performed to estimate the Sirtuins inhibitory potential of 5a–h (Tables 2 and 3). The results of this test strongly complemented the findings of cancer cell-based assessments. […] Of the 8 compounds evaluated, 3 analogs (5b, 5e and 5h) were more likely to inhibit Sirt2 (>70% inhibition) than Sirt1 (<50% inhibition) at 50 μM. The other compounds were poor inhibitors of both enzymes. […] 4.2.2. Sirtuin inhibitory assay

[2] = biological target: T2, SIRT1 (Homo sapiens, UniProt Q96EB6); assay: biochemical; parameters: Sirtuin-TK assay, percent inhibition of human SIRT1 or SIRT2 at 5 and 50 uM
T2 sequence (Q96EB6 2-747): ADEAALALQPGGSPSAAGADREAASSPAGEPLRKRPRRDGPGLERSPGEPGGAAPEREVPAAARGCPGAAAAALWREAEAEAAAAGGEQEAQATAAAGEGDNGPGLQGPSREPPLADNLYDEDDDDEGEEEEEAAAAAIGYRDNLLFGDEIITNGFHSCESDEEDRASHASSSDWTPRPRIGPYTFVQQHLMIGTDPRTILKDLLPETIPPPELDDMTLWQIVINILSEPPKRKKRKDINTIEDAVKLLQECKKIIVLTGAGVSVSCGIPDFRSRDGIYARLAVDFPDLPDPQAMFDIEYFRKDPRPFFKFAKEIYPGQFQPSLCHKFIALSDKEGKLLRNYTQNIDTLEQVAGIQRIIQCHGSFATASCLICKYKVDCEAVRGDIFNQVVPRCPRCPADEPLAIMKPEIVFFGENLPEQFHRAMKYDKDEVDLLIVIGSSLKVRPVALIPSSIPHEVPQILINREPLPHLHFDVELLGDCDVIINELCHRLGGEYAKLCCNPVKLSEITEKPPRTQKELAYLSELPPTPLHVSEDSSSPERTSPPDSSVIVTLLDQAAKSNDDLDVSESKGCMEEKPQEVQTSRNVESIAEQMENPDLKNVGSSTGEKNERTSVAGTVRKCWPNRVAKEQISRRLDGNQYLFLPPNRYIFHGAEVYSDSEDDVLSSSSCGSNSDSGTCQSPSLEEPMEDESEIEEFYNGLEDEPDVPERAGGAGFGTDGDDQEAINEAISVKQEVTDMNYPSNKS
Method: as §1

[3] = biological target: T1, SIRT2; assay: sirtuin deacetylase inhibition assay, % inhibition at […] ([…] at […]); format: biochemical
[4] = tested on: T-47D; assay: cells; parameters: species or system NCI-60 human tumour cell lines; NCI-60 one-dose screen at 10 uM, percent growth inhibition versus untreated control cells; details: Homo sapiens, T47D; growth inhibition, one dose; read-out: Growth% inhibition / 5c
Method: (§2) The antiproliferative activity of the target compounds 5a–h was screened against a panel of 60 cancer cell lines according to NCI-guidelines at concentration of 10 μM. The results for each compound (Table 1) were recorded as the percent of growth inhibition of treated cells compared to untreated control cells. […] In addition, 5b recorded significant activity against leukemia cancer cell lines K-562 and MOLT-4, Non-small cell lung cancer cell lines NCI-H322M and NCI-H460, Colon cancer cell lines COLO 205, HCT-15 and HCT-116, CNS cancer cell lines SF-295 and SF-539, Melanoma cancer cell lines LOX IMVI and UACC-62, Ovarian cancer cell lines NCI/ADR-RES, OVCAR-3, and OVCAR-4, Renal cancer cell lines CAKI-1, ACHN, and UO-31, and Breast cancer MCF7 cell line with growth inhibition percentage between 80 to 95. […] The methodology of the NCI anticancer screening has been described in detail elsewhere (https://dtp.cancer.gov/).[52]

[5] = tested on: K-562; assay: cells; parameters: species or system NCI-60 human tumour cell lines; NCI-60 one-dose screen at 10 uM, percent growth inhibition versus untreated control cells; details: Homo sapiens, K562; growth inhibition, one dose; read-out: Growth% inhibition / 5c
Method: as §2

[6] = tested on: BT-549; assay: cells; parameters: species or system NCI-60 human tumour cell lines; NCI-60 one-dose screen at 10 uM, percent growth inhibition versus untreated control cells; details: Homo sapiens, BT-549; growth inhibition, one dose; read-out: Growth% inhibition / 5c
Method: as §2

[7] = tested on: UACC-62; assay: cells; parameters: species or system NCI-60 human tumour cell lines; NCI-60 one-dose screen at 10 uM, percent growth inhibition versus untreated control cells; details: Homo sapiens, UACC-62, growth inhibition, one dose
Method: as §2

[8] = tested on: RPMI-8226; assay: cells; parameters: species or system NCI-60 human tumour cell lines; NCI-60 one-dose screen at 10 uM, percent growth inhibition versus untreated control cells; details: Homo sapiens, RPMI-8226; growth inhibition, one dose; read-out: Growth% inhibition / 5c
Method: as §2

[9] = tested on: CCRF-CEM; assay: cells; parameters: species or system NCI-60 human tumour cell lines; NCI-60 one-dose screen at 10 uM, percent growth inhibition versus untreated control cells; details: Homo sapiens, CCRF-CEM; growth inhibition, one dose; read-out: Growth% inhibition / 5c
Method: as §2

[10] = tested on: MCF7; assay: cells; parameters: species or system NCI-60 human tumour cell lines; NCI-60 one-dose screen at 10 uM, percent growth inhibition versus untreated control cells; details: Homo sapiens, MCF7; growth inhibition, one dose; read-out: Growth% inhibition / 5c
Method: as §2

[11] = tested on: UO-31; assay: cells; parameters: species or system NCI-60 human tumour cell lines; NCI-60 one-dose screen at 10 uM, percent growth inhibition versus untreated control cells; details: Homo sapiens, UO-31, growth inhibition, one dose
Method: as §2

[12] = tested on: NCI-H226; assay: cells; parameters: species or system NCI-60 human tumour cell lines; NCI-60 one-dose screen at 10 uM, percent growth inhibition versus untreated control cells; details: Homo sapiens, NCI-H226, growth inhibition, one dose
Method: as §2

[13] = tested on: SF-539; assay: cells; parameters: species or system NCI-60 human tumour cell lines; NCI-60 one-dose screen at 10 uM, percent growth inhibition versus untreated control cells; details: Homo sapiens, SF-539; growth inhibition, one dose; read-out: Growth% inhibition / 5c
Method: as §2

[14] = tested on: NCI-H522; assay: cells; parameters: species or system NCI-60 human tumour cell lines; NCI-60 one-dose screen at 10 uM, percent growth inhibition versus untreated control cells; details: Homo sapiens, NCI-H522; growth inhibition, one dose; read-out: Growth% inhibition / 5c
Method: as §2

[15] = tested on: NCI-H322M; assay: cells; parameters: species or system NCI-60 human tumour cell lines; NCI-60 one-dose screen at 10 uM, percent growth inhibition versus untreated control cells; details: Homo sapiens, NCI-H322M; growth inhibition, one dose; read-out: Growth% inhibition / 5c
Method: as §2

[16] = biological target: T1, SIRT2; assay: sirtuin deacetylase inhibition assay, % inhibition at […] ([…] at […]); format: biochemical; remark: listed apart in the source
[17] = tested on: LOX IMVI; assay: cells; parameters: species or system NCI-60 human tumour cell lines; NCI-60 one-dose screen at 10 uM, percent growth inhibition versus untreated control cells; details: Homo sapiens, LOX IMVI; growth inhibition, one dose; read-out: Growth% inhibition / 5g
Method: as §2

[18] = tested on: IGROV1; assay: cells; parameters: species or system NCI-60 human tumour cell lines; NCI-60 one-dose screen at 10 uM, percent growth inhibition versus untreated control cells; details: Homo sapiens, IGROV-1, growth inhibition, one dose
Method: as §2

[19] = tested on: SNB-75; assay: cells; parameters: species or system NCI-60 human tumour cell lines; NCI-60 one-dose screen at 10 uM, percent growth inhibition versus untreated control cells; details: Homo sapiens, SNB-75, growth inhibition, one dose
Method: as §2

[20] = biological target: T1, SIRT2; assay: sirtuin deacetylase inhibition assay, % inhibition at […] ([…] at […]); format: biochemical; remark: listed apart in the source
[21] = tested on: SR; assay: cells; parameters: species or system NCI-60 human tumour cell lines; NCI-60 one-dose screen at 10 uM, percent growth inhibition versus untreated control cells; details: Homo sapiens, SR; growth inhibition, one dose; read-out: Growth% inhibition / 5f
Method: as §2

[22] = tested on: HOP-92; assay: cells; parameters: species or system NCI-60 human tumour cell lines; NCI-60 one-dose screen at 10 uM, percent growth inhibition versus untreated control cells; details: Homo sapiens, HOP-92; growth inhibition, one dose; read-out: Growth% inhibition / 5f
Method: as §2

[23] = tested on: CAKI-1; assay: cells; parameters: species or system NCI-60 human tumour cell lines; NCI-60 one-dose screen at 10 uM, percent growth inhibition versus untreated control cells; details: Homo sapiens, CAKI-1; growth inhibition, one dose; read-out: Growth% inhibition / 5f
Method: as §2

[24] = read-out: Growth% inhibition / 5c
[25] = read-out: Growth% inhibition / 5g
[26] = read-out: Growth% inhibition / 5f

In the case of `COc1cc(C=NNC(=O)/C=C/C=C/c2ccc3c(c2)OCO3)ccc1O` [5c, (2E,4E)-5-(Benzo[d][1,3]dioxol-5-yl)-N′-((E,Z)-4-hydroxy-3-methoxybenzylidene)penta-2,4-dienehydrazide], the inhibition at 5 µM [1] is reported as 17 ± 3%, the inhibition at 5 µM [2] is reported as 12 ± 1% and the inhibition at 50 µM [2] is reported as 38 ± 3%. The inhibition at 50 µM [3] was 58 ± 3%, the inhibition at 10 µM [4] was 19.8% and the inhibition at 10 µM [5] was 10.5%. For the same molecule, the inhibition at 10 µM [6] was 13.6%, the inhibition at 10 µM [7, 24] was 11.3% and the inhibition at 10 µM [8] was 15.3%. For the same molecule, the inhibition at 10 µM [9] was 12.1%, the inhibition at 10 µM [10] was 20.1% and the inhibition at 10 µM [11, 24] was 14%. It also gave an inhibition at 10 µM [12, 24] of 18.3%, an inhibition at 10 µM [13] of 15.3% and an inhibition at 10 µM [14] of 22%. For the same molecule, the inhibition at 10 µM [15] was 14.7%.
With `CC(C)(C)c1cc(/C=N/NC(=O)/C=C/C=C/c2ccc3c(c2)OCO3)c(O)c(C(C)(C)C)c1` [5g, (2E,4E)-5-(Benzo[d][1,3]dioxol-5-yl)-N′-((E)-3,5-di-tert-butyl-2-hydroxy-benzylidene)penta-2,4-dienehydrazide] the inhibition at 5 µM [1] was 19 ± 2%, the inhibition at 5 µM [2] was 9 ± 2% and the inhibition at 50 µM [2] was 35 ± 1%. For the same molecule, the inhibition at 50 µM [16] was 55 ± 1%, the inhibition at 10 µM [17] was 12.1% and the inhibition at 10 µM [11, 25] was 27.9%. For the same molecule, the inhibition at 10 µM [18, 25] was 14.1%, the inhibition at 10 µM [12, 25] was 10.1% and the inhibition at 10 µM [19, 25] was 33%.
Work on `O=C(/C=C/C=C/c1ccc2c(c1)OCO2)NN=C(c1ccc(F)cc1)c1ccc(F)cc1` [5f, (2E,4E)-5-(Benzo[d][1,3]dioxol-5-yl)-N′-(bis(4-fluorophenyl)methylene)penta-2,4-dienehydrazide] yielded an inhibition at 50 µM [20] of 69 ± 3%, an inhibition at 5 µM [1] of 20 ± 4% and an inhibition at 5 µM [2] of 14 ± 4%. The inhibition at 50 µM [2] was 39 ± 3%, the inhibition at 10 µM [21] was 36.3% and the inhibition at 10 µM [22] was 13.8%. The inhibition at 10 µM [7, 26] was 12.2%, the inhibition at 10 µM [23] was 12.8% and the inhibition at 10 µM [11, 26] was 18.3%. It also gave an inhibition at 10 µM [18, 26] of 12.1% and an inhibition at 10 µM [19, 26] of 16.6%.
